From US20240139220A1, “TREATMENT OF HPV INFECTION” (priority 2022, published 2024)

What was measured:
Format in all cases: physicochemical
[1] = Hygroscicity by Dynamic Vapor Sorption (DVS) at 25° C.; details: for D. (%) Cycle 1 (Desorption) / D. (%) Cycle 2 (Desorption) / S. (%) Cycle 1 (Sorption) / S. (%) Cycle 2 (Sorption) / XRPD after DVS test: 25° C.; for XRPD after DVS test: cycle 40-0-95-0-40% RH; for Water uptake: DVS 25° C.
Description: Hygroscopicity was investigated by DVS at 25° C., using the following method: […]

[2] = Solubility in buffers, water and simulated vaginal fluid at 37° C.
Description: About 4 mg of Compound I Pattern 1 was added into 2 mL of buffer solution.
(§1) Solubility was tested in five media, pH 3.0 citrate buffer, pH 4.5 acetate buffer, pH 6.8 phosphate buffer, water, simulated vaginal fluid (pH 4.2) at 37° C. for 0.5 h and 2 h.
The salt amount used is equivalent to 10 mg anhydrous free base. […] The obtained clear solutions were analyzed by pH meter for pH, and solubility was determined by observation.
as §1

[3] = Bulk stability, accelerated storage for one week (HPLC, XRPD)
Description: Bulk stability: Accelerated stability experiments were conducted at 25° C./92% RH and 40° C./75% RH in an open container, 60° C. in a tight container for one week.
Samples were characterized by XRPD and HPLC and inspected for color change.
Accelerated stability experiments were conducted at 25° C./92% RH in an open container, at 40° C./75% RH in an open container, and at 60° C. in a tight container for one week.

[4] = Simulated vaginal fluid (pH adjusted with 0.2N NaOH)
[5] = 25° C., 84% RH, open container, 2 days
[6] = 25° C., 92% RH, open container, one week
[7] = 40° C., 75% RH, open container, one week
[8] = 60° C., tight container, one week

In the case of `CCOC(=O)C(C)NP(=O)(COCCn1cnc2c(OC)nc(N)nc21)OCc1ccccc1.CCOC(=O)C(C)NP(=O)(COCCn1cnc2c(OC)nc(N)nc21)OCc1ccccc1.O=C(O)C=CC(=O)O` (mixture of isomers) [Compound I Hemifumarate Pattern 1], the “D. (%) Cycle 1 (Desorption)” value ([1]; 0% RH) is reported as 0.13%, the “D. (%) Cycle 2 (Desorption)” value ([1]; 0% RH) is reported as 0.00% and the “S. (%) Cycle 1 (Sorption)” value ([1]; 0% RH) is reported as 0.13%. For the same molecule, the “S. (%) Cycle 2 (Sorption)” value ([1]; 0% RH) was 0.00%, the “D. (%) Cycle 1 (Desorption)” value ([1]; 10% RH) was 0.36% and the “D. (%) Cycle 2 (Desorption)” value ([1]; 10% RH) was 0.23%. The “S. (%) Cycle 1 (Sorption)” value ([1]; 10% RH) was 0.34%, the “S. (%) Cycle 2 (Sorption)” value ([1]; 10% RH) was 0.20% and the “D. (%) Cycle 1 (Desorption)” value ([1]; 20% RH) was 0.56%. The “D. (%) Cycle 2 (Desorption)” value ([1]; 20% RH) was 0.44%, the “S. (%) Cycle 1 (Sorption)” value ([1]; 20% RH) was 0.53% and the “S. (%) Cycle 2 (Sorption)” value ([1]; 20% RH) was 0.40%. For the same molecule, the “D. (%) Cycle 1 (Desorption)” value ([1]; 30% RH) was 0.79%, the “D. (%) Cycle 2 (Desorption)” value ([1]; 30% RH) was 0.68% and the “S. (%) Cycle 1 (Sorption)” value ([1]; 30% RH) was 0.73%. For the same molecule, the “S. (%) Cycle 2 (Sorption)” value ([1]; 30% RH) was 0.61%, the “D. (%) Cycle 1 (Desorption)” value ([1]; 40% RH) was 1.04% and the “D. (%) Cycle 2 (Desorption)” value ([1]; 40% RH) was 0.94%. For the same molecule, the “S. (%) Cycle 1 (Sorption)” value ([1]; 40% RH) was 0.96%, the “S. (%) Cycle 2 (Sorption)” value ([1]; 40% RH) was 0.87% and the “D. (%) Cycle 2 (Desorption)” value ([1]; 50% RH) was 1.26%. The “S. (%) Cycle 1 (Sorption)” value ([1]; 50% RH) was 1.22%, the “D. (%) Cycle 2 (Desorption)” value ([1]; 60% RH) was 1.68% and the “S. (%) Cycle 1 (Sorption)” value ([1]; 60% RH) was 1.57%. For the same molecule, the “D. (%) Cycle 2 (Desorption)” value ([1]; 70% RH) was 2.25%, the “S. (%) Cycle 1 (Sorption)” value ([1]; 70% RH) was 2.04% and the “D. (%) Cycle 2 (Desorption)” value ([1]; 80% RH) was 3.14%. The “S. (%) Cycle 1 (Sorption)” value ([1]; 80% RH) was 2.80%, the “D. (%) Cycle 2 (Desorption)” value ([1]; 90% RH) was 4.84% and the “S. (%) Cycle 1 (Sorption)” value ([1]; 90% RH) was 4.54%. For the same molecule, the “D. (%) Cycle 2 (Desorption)” value ([1]; 95% RH) was 6.87%, the “S. (%) Cycle 1 (Sorption)” value ([1]; 95% RH) was 6.87% and the “XRPD after DVS test” value [1] was “No form change,”. The Water uptake ([1]; up to 95% RH) was about 6.9%, the “Solubility 0.5 hrs” value [2, 4] was over 2000 µg/mL and the “Solubility 2 hrs” value [2, 4] was over 2000 µg/mL. For the same molecule, the “pH at 2 hrs” value [2, 4] was “(5.30)”, the “Solubility 0.5 hrs” value ([2]; Water) was over 2000 µg/mL and the “Solubility 2 hrs” value ([2]; Water) was over 2000 µg/mL. For the same molecule, the “pH at 2 hrs” value ([2]; Water) was “(3.38)”, the “Solubility 0.5 hrs” value ([2]; pH 3.0 100 mM citrate buffer) was over 2000 µg/mL and the “Solubility 2 hrs” value ([2]; pH 3.0 100 mM citrate buffer) was over 2000 µg/mL. The “pH at 2 hrs” value ([2]; pH 3.0 100 mM citrate buffer) was “(3.07)”, the “Solubility 0.5 hrs” value ([2]; pH 4.5 50 mM acetate buffer) was over 2000 µg/mL and the “Solubility 2 hrs” value ([2]; pH 4.5 50 mM acetate buffer) was over 2000 µg/mL. The “pH at 2 hrs” value ([2]; pH 4.5 50 mM acetate buffer) was “(4.45)”, the “Solubility 0.5 hrs” value ([2]; pH 6.8 50 mM phosphate buffer) was over 2000 µg/mL and the “Solubility 2 hrs” value ([2]; pH 6.8 50 mM phosphate buffer) was over 2000 µg/mL. For the same molecule, the “pH at 2 hrs” value ([2]; pH 6.8 50 mM phosphate buffer) was “(6.68)”, the XRPD [3, 5] was “No change” and the “HPLC (chemical purity)” value [3, 6] was 97.0%. For the same molecule, the XRPD [3, 6] was “No change”, the “HPLC (chemical purity)” value [3, 7] was 90.9% and the XRPD [3, 7] was “No change”. For the same molecule, the “Degradation compared” value ([3]; 40° C./75% RH and 60° C. for one week) was “tends to degrade more than Compound I monofumarate Pattern 1”, the “HPLC (chemical purity)” value [3, 8] was 82.3% and the XRPD [3, 8] was “No change”. The “HPLC (chemical purity)” value ([3]; Initial) was 97.8%.

With `CCOC(=O)C(C)NP(=O)(COCCn1cnc2c(OC)nc(N)nc21)OCc1ccccc1` (mixture of isomers) [Compound I free base Pattern 1] the “D. (%) Cycle 1 (Desorption)” value ([1]; 0% RH) was 0.00%, the “D. (%) Cycle 2 (Desorption)” value ([1]; 0% RH) was 0.19% and the “S. (%) Cycle 1 (Sorption)” value ([1]; 0% RH) was 0.00%. The “S. (%) Cycle 2 (Sorption)” value ([1]; 0% RH) was 0.19%, the “D. (%) Cycle 1 (Desorption)” value ([1]; 10% RH) was 0.11% and the “D. (%) Cycle 2 (Desorption)” value ([1]; 10% RH) was 0.37%. For the same molecule, the “S. (%) Cycle 1 (Sorption)” value ([1]; 10% RH) was 0.08%, the “S. (%) Cycle 2 (Sorption)” value ([1]; 10% RH) was 0.22% and the “D. (%) Cycle 1 (Desorption)” value ([1]; 20% RH) was 0.23%. The “D. (%) Cycle 2 (Desorption)” value ([1]; 20% RH) was 0.57%, the “S. (%) Cycle 1 (Sorption)” value ([1]; 20% RH) was 0.17% and the “S. (%) Cycle 2 (Sorption)” value ([1]; 20% RH) was 0.30%. The “D. (%) Cycle 1 (Desorption)” value ([1]; 30% RH) was 0.47%, the “D. (%) Cycle 2 (Desorption)” value ([1]; 30% RH) was 0.83% and the “S. (%) Cycle 1 (Sorption)” value ([1]; 30% RH) was 0.28%. The “S. (%) Cycle 2 (Sorption)” value ([1]; 30% RH) was 0.44%, the “D. (%) Cycle 1 (Desorption)” value ([1]; 40% RH) was 0.60% and the “D. (%) Cycle 2 (Desorption)” value ([1]; 40% RH) was 1.09%. The “S. (%) Cycle 1 (Sorption)” value ([1]; 40% RH) was 0.41%, the “S. (%) Cycle 2 (Sorption)” value ([1]; 40% RH) was 0.62% and the “D. (%) Cycle 2 (Desorption)” value ([1]; 50% RH) was 1.48%. The “S. (%) Cycle 1 (Sorption)” value ([1]; 50% RH) was 0.61%, the “D. (%) Cycle 2 (Desorption)” value ([1]; 60% RH) was 1.96% and the “S. (%) Cycle 1 (Sorption)” value ([1]; 60% RH) was 0.85%. The “D. (%) Cycle 2 (Desorption)” value ([1]; 70% RH) was 2.78%, the “S. (%) Cycle 1 (Sorption)” value ([1]; 70% RH) was 1.14% and the “D. (%) Cycle 2 (Desorption)” value ([1]; 80% RH) was 4.33%. The “S. (%) Cycle 1 (Sorption)” value ([1]; 80% RH) was 1.64%, the “D. (%) Cycle 2 (Desorption)” value ([1]; 90% RH) was 9.10% and the “S. (%) Cycle 1 (Sorption)” value ([1]; 90% RH) was 4.27%. The “D. (%) Cycle 2 (Desorption)” value ([1]; 95% RH) was 14.32%, the “S. (%) Cycle 1 (Sorption)” value ([1]; 95% RH) was 14.32% and the “XRPD after DVS test” value [1] was “No form change,”. The Water uptake ([1]; up to 90% RH) was “about 4.3%”, the Water uptake ([1]; up to 95% RH) was “about 14.3%” and the “Solubility 0.5 hrs” value [2, 4] was over 2000 µg/mL. The “Solubility 2 hrs” value [2, 4] was over 2000 µg/mL, the “pH at 2 hrs” value [2, 4] was “(5.53)” and the “Solubility 0.5 hrs” value ([2]; Water) was over 2000 µg/mL. For the same molecule, the “Solubility 2 hrs” value ([2]; Water) was over 2000 µg/mL, the “pH at 2 hrs” value ([2]; Water) was “(7.55)” and the “Solubility 0.5 hrs” value ([2]; pH 3.0 100 mM citrate buffer) was over 2000 µg/mL. The “Solubility 2 hrs” value ([2]; pH 3.0 100 mM citrate buffer) was over 2000 µg/mL, the “pH at 2 hrs” value ([2]; pH 3.0 100 mM citrate buffer) was “(2.98)” and the “Solubility 0.5 hrs” value ([2]; pH 4.5 50 mM acetate buffer) was over 2000 µg/mL. For the same molecule, the “Solubility 2 hrs” value ([2]; pH 4.5 50 mM acetate buffer) was over 2000 µg/mL, the “pH at 2 hrs” value ([2]; pH 4.5 50 mM acetate buffer) was “(4.50)” and the “Solubility 0.5 hrs” value ([2]; pH 6.8 50 mM phosphate buffer) was over 2000 µg/mL. The “Solubility 2 hrs” value ([2]; pH 6.8 50 mM phosphate buffer) was over 2000 µg/mL, the “pH at 2 hrs” value ([2]; pH 6.8 50 mM phosphate buffer) was “(6.81)” and the XRPD [3, 5] was “No change”. For the same molecule, the “HPLC (chemical purity)” value [3, 6] was 98.5%, the XRPD [3, 6] was “No change” and the “HPLC (chemical purity)” value [3, 7] was 95.2%. For the same molecule, the XRPD [3, 7] was “No change”, the “HPLC (chemical purity)” value [3, 8] was 98.5% and the XRPD [3, 8] was “No change”. For the same molecule, the “HPLC (chemical purity)” value ([3]; Initial) was 98.7%.
